Our source for the IC50 values is US20260306496A1, “CDK2 INHIBITOR PYRAZOLOPYRIMIDINE COMPOUNDS” (ALEKSIA THERAPEUTICS, INC., priority 2023, published 2026).

Molecules are shown by their SMILES. A value given as a limit tells only on which side of the number the result lay.

The first assay deals with CDK2/CCNE1 (Homo sapiens, UniProt P24941). In words: CDK2 homogeneous time-resolved fluorescence (HTRF) assay. The format is biochemical. To be noted: 3 nM CDK2/CCNE1, 1 mM ATP, 50 nM ULight-eIF4E-binding protein 1 (Thr37/46) peptide, 60 min at 23° C.; read-out: CDK2/CCNE IC50 <25 nM. As for the experimental part: A CDK homogeneous time-resolved fluorescence (HTRF) assay was used to assess the potency of the compounds described herein.
To an untreated 384-well microtiter plate (ProxiPlate) was added 100 nL 100× test compound in DMSO and 5 μL 2×CDK enzyme in assay buffer (50 mM HEPES, 1 mM EGTA, 10 mM MgCl2, 0.01% Tween 20, 2 mM DTT). The plate was centrifuged at 800 RPM for 1 min then incubated for 20 min at 23° C. 2.5 μL per well of 4×ATP and 2.5 μL 4×ULight™-eIF4E-binding protein 1 (Thr37/46) Peptide) substrate were added to all wells. After addition, the plates were centrifuged at 800 RPM for 1 min. The plates were incubated at 23° C. for 60 min. 5 μL per well 3×EDTA solution were added to each well to stop the reaction. 2.5 μL 7×LANCE Ultra Europium-anti-phospho-eTF4E-binding protein 1 (Thr37/46 antibody) were added to each well and the plate was centrifuged for 1 min at 800 RPM. The plate was incubated for 60 min at 23° C. Fluorescence was read at 340 nm excitation and 665 nm emission on an EnVision 2105 fluorescence reader. The final concentrations of reagents in the activity assay were 3 nM CDK2/CCNE1, 1 mM ATP, 50 nM ULight™-eIF4E-binding protein 1 (Thr37/46) Peptide substrate, 1% DMSO, 10 mM EDTA, and 2 nM LANCE Ultra Europium-anti-phospho-eTF4E-binding protein 1 (Thr37/46).
Dose-response titrations were conducted by using an 11-point, three-fold serial dilution scheme typically starting at 1 μM. Signals were reported as fluorescence units at 665 nm or the ratio of fluorescence units at 665 nm/fluorescence units at 615 nm. Signals are referred to below as “Lance signals”.
Using this assay, the IC50 values of example compounds were determined.
Turning to `CS(=O)(=O)c1ccc(Nc2ncc3cnn([C@@H]4CCC[C@@H](O)C4)c3n2)cc1` [Compound 51, (1R,3R)-3-(6-((4-(methylsulfonyl)phenyl)amino)-1H-pyrazolo[3,4-d]pyrimidin-1-yl)cyclohexan-1-ol], the IC50 is < 25 nM. The same measure, in the same setting: then `CN[C@H]1CC[C@@H](Cn2ncc3cnc(Nc4ccc(S(C)(=O)=O)cc4)nc32)CC1` [Compound 45, 1-(((1s,4s)-4-(methylamino)cyclohexyl)methyl)-N-(4-(methylsulfonyl)phenyl)-1H-pyrazolo[3,4-d]pyrimidin-6-amine], with < 25 nM; and `CS(=O)(=O)c1ccc(Nc2ncc3cnn([C@@H]4CCC[C@@H](C#N)C4)c3n2)cc1` [Compound 46, (1R,3R)-3-(6-((4-(methylsulfonyl)phenyl)amino)-1H-pyrazolo[3,4-d]pyrimidin-1-yl)cyclohexane-1-carbonitrile], with < 25 nM. For the molecule `O=Cc1cccc(Nc2ncc3cnn(CC4CCCCC4)c3n2)c1` [Compound 26, 3-((1-(cyclohexylmethyl)-1H-pyrazolo[3,4-d]pyrimidin-6-yl)amino)benzaldehyde], the IC50 is < 25 nM. In the case of `C=CS(=O)(=O)N1CCC(Nc2ncc3cnn(CC4CCCCC4)c3n2)CC1` [Compound 1, 1-(cyclohexylmethyl)-N-(1-(vinylsulfonyl)piperidin-4-yl)-1H-pyrazolo[3,4-d]pyrimidin-6-amine], the IC50 is < 25 nM.

The assay is the same for the next values; noted with them: 3 nM CDK2/CCNE1, 1 mM ATP, 50 nM ULight-eIF4E-binding protein 1 (Thr37/46) peptide, 60 min at 23° C.; read-out: CDK2/CCNE IC50 >150 nM.
Regarding `CS(=O)(=O)c1ccc(Nc2ncc3cnn(C[C@@H]4CCC(=O)N4)c3n2)cc1` [Compound 57, (S)-5-((6-((4-(methylsulfonyl)phenyl)amino)-1H-pyrazolo[3,4-d]pyrimidin-1-yl)methyl)pyrrolidin-2-one], the IC50 was > 150 nM. Same read-out and setting: then `CC(c1cccnn1)n1ncc2cnc(Nc3ccc(S(C)(=O)=O)cc3)nc21` (single isomer, unassigned) [Compound 77, N-(4-(methylsulfonyl)phenyl)-1-(1-(pyridazin-3-yl)ethyl)-1H-pyrazolo[3,4-d]pyrimidin-6-amine], with > 150 nM; and `CS(=O)(=O)c1ccc(Nc2ncc3cnn(CC4CCC(N5CC[C@@H](O)C5)CC4)c3n2)cc1` (single isomer, unassigned; stereoisomer a) [Compound 73], with > 150 nM. Consider `C=CS(=O)(=O)c1ncc(Nc2ncc3cnn(CC4CCCCC4)c3n2)cc1Cl` [Compound 31, N-(5-chloro-6-(vinylsulfonyl)pyridin-3-yl)-1-(cyclohexylmethyl)-1H-pyrazolo[3,4-d]pyrimidin-6-amine], for which the IC50 is > 150 nM. In the case of `CS(=O)(=O)c1ccc(Nc2ncc3cnn(C[C@H]4CC[C@@H](C(=O)O)CC4)c3n2)cc1` [Compound 16, (1s,4s)-4-((6-((4-(methylsulfonyl)phenyl)amino)-1H-pyrazolo[3,4-d]pyrimidin-1-yl)methyl)cyclohexane-1-carboxylic acid], the IC50 is > 150 nM. For the molecule `CS(=O)(=O)c1ccc(Nc2ncc3cnn(Cc4ccccc4)c3n2)cc1` [Compound 4, 1-benzyl-N-(4-(methylsulfonyl)phenyl)-1H-pyrazolo[3,4-d]pyrimidin-6-amine], the IC50 was > 150 nM. Regarding `C=CS(=O)(=O)c1ccc(Nc2ncc3cnn(C)c3n2)cc1` [Compound 10, 1-methyl-N-(4-(vinylsulfonyl)phenyl)-1H-pyrazolo[3,4-d]pyrimidin-6-amine], the IC50 is > 150 nM. `CS(=O)(=O)c1ccc(Nc2ncc3cnn(CC4CCCCC4)c3n2)cc1C(F)(F)F` [Compound 79, 1-(cyclohexylmethyl)-N-(4-(methylsulfonyl)-3-(trifluoromethyl)phenyl)-1H-pyrazolo[3,4-d]pyrimidin-6-amine]: the IC50 is > 150 nM. Same read-out and setting: in the case of `CS(=O)(=O)c1ccc(Nc2ncc3cnn(C4CC(=O)C4)c3n2)cc1` [Compound 39, 3-(6-((4-(methylsulfonyl)phenyl)amino)-1H-pyrazolo[3,4-d]pyrimidin-1-yl)cyclobutan-1-one] it was > 150 nM.

Staying with this assay, now noted: column 25-150 nM; 3 nM CDK2/CCNE1, 1 mM ATP, 50 nM ULight-eIF4E-binding protein 1 (Thr37/46) peptide, 60 min at 23° C.; read-out: CDK2/CCNE IC50 25-150 nM.
Regarding `OCc1ccc(Nc2ncc3cnn(CC4CCCCC4)c3n2)cc1` [Compound 24, (4-((1-(cyclohexylmethyl)-1H-pyrazolo[3,4-d]pyrimidin-6-yl)amino)phenyl)methanol], the IC50 fell in the range of 25 to 150 nM. In the case of `OCCc1ccc(Nc2ncc3cnn(CC4CCCCC4)c3n2)cc1` [Compound 22, 2-(4-((1-(cyclohexylmethyl)-1H-pyrazolo[3,4-d]pyrimidin-6-yl)amino)phenyl)ethan-1-ol], the IC50 was 25 to 150 nM.

In the case of `C=CS(=O)(=O)c1ccc(Nc2ncc3cnn(CC4CCCCC4)c3n2)cc1C(F)(F)F` [Compound 42, 1-(cyclohexylmethyl)-N-(3-(trifluoromethyl)-4-(vinylsulfonyl)phenyl)-1H-pyrazolo[3,4-d]pyrimidin-6-amine], the IC50 lay in the range of 25 to 150 nM. The same measure, in the same setting: then `O=Cc1ccc(Nc2ncc3cnn(CC4CCCCC4)c3n2)cc1` [Compound 25, 4-((1-(cyclohexylmethyl)-1H-pyrazolo[3,4-d]pyrimidin-6-yl)amino)benzaldehyde], with 25 to 150 nM; and `OCc1cc(Nc2ncc3cnn(CC4CCCCC4)c3n2)ccc1O` [Compound 55, 4-((1-(cyclohexylmethyl)-1H-pyrazolo[3,4-d]pyrimidin-6-yl)amino)-2-(hydroxymethyl)phenol], with 25 to 150 nM. Regarding `CS(=O)(=O)c1ccc(Nc2ncc3cnn(Cc4cccc5[nH]ccc45)c3n2)cc1` [Compound 29, 1-((1H-indol-4-yl)methyl)-N-(4-(methylsulfonyl)phenyl)-1H-pyrazolo[3,4-d]pyrimidin-6-amine], the IC50 was 25 to 150 nM.

Regarding `CS(=O)(=O)c1ccc(Nc2ncc3cnn(CC4CCC(C#N)CC4)c3n2)cc1` (single isomer, unassigned) [Compound 28, 4-((6-((4-(methylsulfonyl)phenyl)amino)-1H-pyrazolo[3,4-d]pyrimidin-1-yl)methyl)cyclohexane-1-carbonitrile], the IC50 was 25 to 150 nM. For `CCN(C)[C@H]1CC[C@@H](Cn2ncc3cnc(Nc4ccc(S(C)(=O)=O)cc4)nc32)CC1` [Compound 75, 1-(((1s,4s)-4-(ethyl(methyl)amino)cyclohexyl)methyl)-N-(4-(methylsulfonyl)phenyl)-1H-pyrazolo[3,4-d]pyrimidin-6-amine], the IC50 lay in the range of 25 to 150 nM. Regarding `CS(=O)(=O)c1ccc(Nc2ncc3cnn(C[C@H]4CC[C@H](CO)CC4)c3n2)cc1` [Compound 11, ((1r,4r)-4-((6-((4-(methylsulfonyl)phenyl)amino)-1H-pyrazolo[3,4-d]pyrimidin-1-yl)methyl)cyclohexyl)methanol], the IC50 fell in the range of 25 to 150 nM. For the molecule `CS(=O)(=O)c1ccc(Nc2ncc3cnn(CC4CCC(N5CCCC5)CC4)c3n2)cc1` (single isomer, unassigned; stereoisomer a) [Compound 58, N-(4-(methylsulfonyl)phenyl)-1-((4-(pyrrolidin-1-yl)cyclohexyl)methyl)-1H-pyrazolo[3,4-d]pyrimidin-6-amine (stereoisomer A)], the IC50 lay in the range of 25 to 150 nM.

Turning to `CS(=O)(=O)c1ccc(Nc2ncc3cnn(C[C@H]4CC[C@@H](C=O)CC4)c3n2)cc1` [Compound 27, (1s,4s)-4-((6-((4-(methylsulfonyl)phenyl)amino)-1H-pyrazolo[3,4-d]pyrimidin-1-yl)methyl)cyclohexane-1-carbaldehyde], the IC50 is 25 to 150 nM. The same measure, in the same setting: then `CS(=O)(=O)c1ccc(Nc2ncc3cnn(CC4CCCCC4)c3n2)cc1` [Compound 12, 1-(cyclohexylmethyl)-N-(4-(methylsulfonyl)phenyl)-1H-pyrazolo[3,4-d]pyrimidin-6-amine], with 25 to 150 nM. On the same count and under the same terms, in the case of `C=CS(=O)(=O)c1c(F)cc(Nc2ncc3cnn(CC4CCCCC4)c3n2)cc1F` [Compound 37, 1-(cyclohexylmethyl)-N-(3,5-difluoro-4-(vinylsulfonyl)phenyl)-1H-pyrazolo[3,4-d]pyrimidin-6-amine] it was 25 to 150 nM; in that of `CS(=O)(=O)c1ccc(Nc2ncc3cnn(C4CCNCC4)c3n2)cc1` [Compound 14, N-(4-(methylsulfonyl)phenyl)-1-(piperidin-4-yl)-1H-pyrazolo[3,4-d]pyrimidin-6-amine], 25 to 150 nM; in that of `C=CS(=O)(=O)c1ccc(Nc2ncc3cnn(CC4CCCCC4)c3n2)cc1F` [Compound 36, 1-(cyclohexylmethyl)-N-(3-fluoro-4-(vinylsulfonyl)phenyl)-1H-pyrazolo[3,4-d]pyrimidin-6-amine], 25 to 150 nM.
